BigSolDB 2.1

O=P(Oc1ccccc1)(Oc1ccccc1)N1CCN(P(=O)(Oc2ccccc2)Oc2ccccc2)CC1
solubility (mole fraction)
Details | in 1-methoxy-2-propanol | in 1-methoxy-2-propyl acetate | in 1-propoxy-2-propanol | in 2-(2-methoxypropoxy) propanol
293.15 K | 0.000356 | 0.000351 | 0.000353 | 0.000974
298.15 K | 0.000447 | 0.000443 | 0.000445 | 0.00117
303.15 K | 0.000589 | 0.000517 | 0.000564 | 0.00139
308.15 K | 0.000782 | 0.00063 | 0.000715 | 0.00167
313.15 K | 0.00102 | 0.000762 | 0.000893 | 0.00199
318.15 K | 0.00132 | 0.000945 | 0.00112 | 0.00236
323.15 K | 0.00168 | 0.00115 | 0.00141 | 0.0029
328.15 K | 0.00215 | 0.00141 | 0.00177 | 0.00344
333.15 K | 0.00282 | 0.0017 | 0.00219 | 0.00408
338.15 K | 0.00367 | 0.00204 | 0.00275 | 0.00474
343.15 K | 0.00457 | 0.00248 | 0.00339 | 0.00562

O=P(NCc1cccc(CNP(=O)(Oc2ccccc2)Oc2ccccc2)c1)(Oc1ccccc1)Oc1ccccc1
solubility (mole fraction)
Details | in 1-methoxy-2-propanol | in 1-methoxy-2-propyl acetate | in 1-propoxy-2-propanol | in 2-(2-methoxypropoxy) propanol
293.15 K | 0.000609 | 0.00319 | 0.000508 | 0.00267
298.15 K | 0.000758 | 0.00373 | 0.000636 | 0.00331
303.15 K | 0.000936 | 0.0043 | 0.000766 | 0.00401
308.15 K | 0.00114 | 0.0049 | 0.000964 | 0.00487
313.15 K | 0.00138 | 0.00547 | 0.00121 | 0.00584
318.15 K | 0.00169 | 0.00635 | 0.00144 | 0.00714
323.15 K | 0.00204 | 0.00708 | 0.00182 | 0.00829
328.15 K | 0.00255 | 0.0079 | 0.00216 | 0.00995
333.15 K | 0.00305 | 0.00891 | 0.00259 | 0.0116
338.15 K | 0.00374 | 0.01 | 0.00316 | 0.0138
343.15 K | 0.00432 | 0.0115 | 0.00374 | 0.0156
